Assay results from patent US4891374A, “Imidazo- and triazolothiadiazines” (Hoechst Aktiengesellschaft, priority 1987, dated 1990).
Where a name gives a salt, the structure may show the parent alone.

Legend:
in vivo [1] = conditions: mouse, ip
Experimental: The LD50 values were determined by standard methods from the mortality occurring within 7 days in NMRI (Naval Medical Research Institute) mice (6 animals per dose) after a single intraperitoneal (i.p.) administration.

in vivo [2] = conditions: rat, po
Experimental: The investigation was in each case carried out on 10 male Sprague-Dawley rats whose gastric mucous membrane had been sensitized by hunger stress. The body weight of the animals was between 200 and 300 g. While allowing free access to the drinking water, the feed was withdrawn 48 hours before administration of the test preparations until sacrifice of the animals. The rats were sacrificed 24 hours after oral administration of the substance, and the stomachs were removed, cleaned under running water and inspected for mucous membrane lesions. All macroscopically visible lesions were regarded as ulcers. The number of animals having ulcers was determined per dose, and this figure was used to calculate, by the method of Litchfield and Wilcoxon (J. Pharmacol. Exp. Ther. 96 (1949), p. 99), the UD50 values, ie. the doses at which lesions were caused in 50% of the animals.

Adjuvant arthritis = Adjuvant arthritis (Pearson): reduction in increase in paw volume; format: in vivo, male rats of the Wistar-Lewis strain; conditions: 50 mg/kg p.o. once daily day 1 to day 5; reduction in increase in paw volume vs control
Experimental: The investigations were carried out using the method of Pearson (Arthrit. Rheum. 2 (1959), p. 44). The experimental animals used were male rats of the Wistar-Lewis strain having a body weight between 130 and 200 g. Compounds to be tested were administered orally (p.o.) once daily from day 1 to day 5 of the experiment in doses of 50 mg per kg of body weight. The animals in a control group were given only the vehicle. Each preparation group and the control group contained 8 animals. The criterion used to determine the action was the percentage reduction in the increase in paw volume compared to that of the untreated control group.

[3] = test system: lymphocytes from the spleen; assay: Inhibition of immunopathological processes: type II collagen-induced arthritis, immune activity of spleen lymphocytes towards mitogens; format: in vivo, male Wistar rats; conditions: 20-day treatment phase
Text: It is generally accepted today that the advanced course of inflammatory rheumatic disorders is caused mainly by disfunctions in the immune system and that causal therapy can only succeed using medicaments which are capable of interrupting these immunopathological processes.
In this experiment, arthritis was induced in male Wistar rats by means of type II collagen, which could be obtained by standard methods of Miller and Rhodes (Meth. Enzymol. 82 (1982), p. 33) from the nasal septum of the calf and, mixed with Freund's incomplete adjuvant, was injected intradermally into the animals. This immunization procedure was repeated 7 days later. 20 days after the initial immunization, the sick rats were divided into groups each containing 7 animals, which, in the subsequent 20-day treatment phase, received the respective test substance or the pure vehicle (control group) once daily orally.
On day 41 of the experiment, ie. one day after the final administration of substance, lymphocytes were obtained from the spleen of the experimental animals and their immune activity towards mitogens was investigated, since the immune status of lymphocytes is also sensitively impaired in this model.

lymphocytes = assay: Inhibition of immunopathological processes: adjuvant arthritis, immune activity of lymphocytes towards mitogens; format: in vivo, rat
[4] = test system: Adriamycin (doxorubicin) induced inflammation; assay: Adriamycin-induced inflammation (paw volume); format: in vivo, male Sprague-Dawley rats; conditions: for protective effect against Adriamycin-induced tissue destruction: orally once daily on 4 successive days
Text: According to current opinion, aggressive oxygen radicals, which are formed to excess during the chronic inflammation process and, as highly toxic inflammation mediators themselves, perpetually maintain the destruction of connective tissue which proceeds via irreversible lipid peroxidation of the cell membranes, participate prominently in the progressive course, caused by a number of factors, of rheumatoid arthritis and other inflammatory disorders. As a consequence, pharmaceuticals having an antioxidative action and having the capability to deactivate these extremely cytotoxic oxygen radicals should allow specific intervention in the chronic course of the inflammation. A suitable animal model for this type of tissue destruction caused by oxygen radicals is Adriamycin (doxorubicin) induced inflammation in the rat. The investigations were carried out using the method of D. M. Siegel et al. (Inflammation 4 (1980), p. 233) on male Sprague-Dawley rats having a body weight between 200 and 230 g in groups each containing 7 animals, which received 0.1 mg of Adriamycin, dissolved in 0.1 ml of 0.9% strength sodium chloride solution, by means of subcutaneous injection into the left rear paw. The increase in paw volume was determined 72 hours later by plethysmographic measurement as a measure of the degree of inflammation. The test preparations were administered orally in 1% strength aqueous carboxymethylcellulose suspension once daily on 4 successive days, starting with the day of Adriamycin injection.

[5] = test system: mitochondrial lipid peroxidation; assay: In-vitro inhibition of lipid peroxidation (thiobarbituric acid test), mitochondria; format: biochemical; conditions: rat liver mitochondria
Text: (§1) Further convincing evidence of the pronounced protective action of the compounds according to the invention against aggressive oxygen radicals is provided by the thiobarbituric acid test of A. Ottolenghi (Arch. Biochem. Biophys. 79 (1959) pp. 355-363). Using this in-vitro method, the influence on microsomal and mitochondrial lipid peroxidation by antioxidatively active preparations can be determined from the malonodialdehyde produced on oxidative degradation of membrane-bound, polyunsaturated fatty acids.
(§2) Here too, the compounds of the formula I exerted a strong inhibitory action.

5-lipoxygenase = assay: Inhibition of 5-lipoxygenase in isolated polymorphonuclear granulocytes (LTB4 and 5-HETE formation); format: cell-based, human; conditions: 10^-5 to 10^-6 mol/l; pre-incubation 15 minutes; calcium ionophor A 23 187-stimulated; 15 minutes at 37° C.
Experimental: The inhibitory action of the compounds according to the invention on 5-lipoxygenase-catalyzed degradation of arachidonic acid was determined, as usual, in in-vitro experiments on isolated polymorphonuclear human granulocytes. To this purpose, cells stimulated by calcium ionophor A 23 187 (Calbiochem GmbH, Frankfurt/Main, FRG, Biochemical and Immunochemical Catalog 1985, p. 284) were incubated with ^14 C-labeled arachidonic acid, and the major radioactive degradation products of arachidonic acid formed after 15 minutes at 37° C. by biotransformation, 5-hydroxyeicosatetraenoic acid (5-HETE) and leucotriene B4 (LTB4), which has a particularly strong pro-inflammatory action, were determined quantitatively with the aid of a radio monitor after separation by high-pressure liquid chromatography (HPLC).

[6] = test system: microsomal lipid peroxidation; assay: In-vitro inhibition of lipid peroxidation (thiobarbituric acid test), microsomes; format: biochemical; conditions: rat liver microsomes
Text: as §1, §2

| SMILES | LD50 at 168 h (in vivo [1]) | TD50 at 24 h (in vivo [2]) | Adjuvant Arthritis (% inhibition at 50 mg/kg p.o.) (Adjuvant arthritis) | further results |
| --- | --- | --- | --- | --- |
| CC(C)(C)c1cc(C2=NN3CC(=O)N=C3SC2)cc(C(C)(C)C)c1O [Example 6, 3-(3,5-Di-tert.butyl-4-hydroxyphenyl)-7-oxo-6,7-dihydro-2H-imidazo[2,1-b][1,3,4]-thiadiazine hydrobromide] | 300 to 600 mg/kg | > 200 mg/kg | 73% | – |
| CC(C)(C)c1cc(C2=NN3C(=O)CN=C3SC2)cc(C(C)(C)C)c1O [Example 7, 3-(3,5-Di-tert.butyl-4-hydroxyphenyl)-6-oxo-6,7-dihydro-2H-imidazo[2,1-b][1,3,4]thiadiazine hydrobromide] | 300 to 600 mg/kg | > 200 mg/kg | 59% | – |
| CC1Sc2nncn2N=C1c1cc(C(C)(C)C)c(O)c(C(C)(C)C)c1 (stereo not shown) [Example 5, 3-(3,5-Di-tert.butyl-4-hydroxyphenyl)-2-methyl-2H-s-triazolo[3,4-b][1,3,4]thiadiazine] | > 1200 mg/kg | > 200 mg/kg | 56% | – |
| COc1ccc2cc(C(C)C(=O)O)ccc2c1 (stereo not shown) [naproxen, 2-(6-methoxy2-naphthyl)-propionic acid, reference compound] | – | – | 55% | curative effects on the greatly weakened immune system ([3]; once daily orally): no action; stimulating action on suppressed immunological response (lymphocytes; doses up to 25 mg/kg): ineffective; protective effect against Adriamycin-induced tissue destruction [4]: ineffective |
| CC(C)(C)c1cc(C2=NN3CCN=C3SC2)cc(C(C)(C)C)c1O [Example 1, 3-(3,5-Di-tert.butyl-4-hydroxyphenyl)-6,7-dihydro-2H-imidazo[2,1-b][1,3,4]thiadiazine hydrochloride] | > 1200 mg/kg | 400 mg/kg | 62% | IC50 [5]: 4000 nM; inhibition of formation of 5-HETE (5-lipoxygenase): significantly inhibit; inhibition of formation of LTB4 (5-lipoxygenase): significantly inhibit; immune function of B lymphocytes ([3]; 25 mg/kg p.o. once daily): completely normalized; immune function of T lymphocytes ([3]; 25 mg/kg p.o. once daily): completely normalized; IC50 [6]: 500 nM; normalization of the immunoreactivity (lymphocytes; oral administration of 20 mg/kg): substantial normalization of the immunoreactivity; inhibition of Adriamycin-induced tissue destruction ([4]; 80 mg/kg p.o. once daily on 4 successive days, paw volume 72 hours after Adriamycin): 55%; protective effect against Adriamycin-induced tissue destruction [4]: dose-dependent protective effect |
| CC1SC2=NCCN2N=C1c1cc(C(C)(C)C)c(O)c(C(C)(C)C)c1 (stereo not shown) [Example 2, 3-(3,5-Di-tert.butyl-4-hydroxyphenyl)-2-methyl-6,7-dihydro-2H-imidazo[2,1-b][1,3,4]thiadiazine hydrochloride] | > 1200 mg/kg | 200 mg/kg | 63% | – |
| CC(C)(C)c1cc(C2=Nn3ccnc3SC2)cc(C(C)(C)C)c1O [Example 4, 3-(3,5-Di-tert.butyl-4-hydroxyphenyl)-2H-imidazo[2,1-b][1,3,4]thiadiazine hydrochloride] | 300 to 600 mg/kg | > 200 mg/kg | 69% | – |
